Data published in the supplement of paper PMC11451515.

Test system: SEM cells
Assay: cell viability relative to DMSO control; higher = less cytotoxic
Conditions: 48 h
In short: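 Viability is a per-plate percentage relative to DMSO wells, with cell-free wells as background. CellTiter-Glo One luminescence was read after 48 h at 37°C on 1536-well plates (5 μl) of NOMO1 or SEM (500 cells/well) or P12-Ichikawa (1000 cells/well) leukemia cells. The cells had been adapted for at least four passages in each medium and pin-dosed with library compounds in DMSO from 47 μM to 0.79 nM in 11 threefold steps.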

[1] = HPLM + 10% dialyzed FBS, 0.000781 µM
[2] = HPLM + 10% dialyzed FBS, 0.00234 µM
[3] = HPLM + 10% dialyzed FBS, 0.00702 µM
[4] = HPLM + 10% dialyzed FBS, 0.0211 µM
[5] = HPLM + 10% dialyzed FBS, 0.0632 µM
[6] = HPLM + 10% dialyzed FBS, 0.19 µM
[7] = HPLM + 10% dialyzed FBS, 0.569 µM
[8] = HPLM + 10% dialyzed FBS, 1.71 µM
[9] = HPLM + 10% dialyzed FBS, 5.12 µM
[10] = HPLM + 10% dialyzed FBS, 15.4 µM
[11] = HPLM + 10% dialyzed FBS, 46.1 µM
[12] = RPMI 5 mM glucose + 10% FBS, 0.000781 µM
[13] = RPMI 5 mM glucose + 10% FBS, 0.00234 µM
[14] = RPMI 5 mM glucose + 10% FBS, 0.00702 µM
[15] = RPMI 5 mM glucose + 10% FBS, 0.0211 µM
[16] = RPMI 5 mM glucose + 10% FBS, 0.0632 µM
[17] = RPMI 5 mM glucose + 10% FBS, 0.19 µM
[18] = RPMI 5 mM glucose + 10% FBS, 0.569 µM
[19] = RPMI 5 mM glucose + 10% FBS, 1.71 µM
[20] = RPMI 5 mM glucose + 10% FBS, 5.12 µM
[21] = RPMI 5 mM glucose + 10% FBS, 15.4 µM
[22] = RPMI 5 mM glucose + 10% FBS, 46.1 µM
[23] = RPMI 5 mM glucose + 10% dialyzed FBS, 0.000781 µM
[24] = RPMI 5 mM glucose + 10% dialyzed FBS, 0.00234 µM
[25] = RPMI 5 mM glucose + 10% dialyzed FBS, 0.00702 µM
[26] = RPMI 5 mM glucose + 10% dialyzed FBS, 0.0211 µM
[27] = RPMI 5 mM glucose + 10% dialyzed FBS, 0.0632 µM
[28] = RPMI 5 mM glucose + 10% dialyzed FBS, 0.19 µM
[29] = RPMI 5 mM glucose + 10% dialyzed FBS, 0.569 µM
[30] = RPMI 5 mM glucose + 10% dialyzed FBS, 1.71 µM
[31] = RPMI 5 mM glucose + 10% dialyzed FBS, 5.12 µM
[32] = RPMI 5 mM glucose + 10% dialyzed FBS, 15.4 µM
[33] = RPMI 5 mM glucose + 10% dialyzed FBS, 46.1 µM

Compound	cell viability [1] [%]	cell viability [2] [%]	cell viability [3] [%]	cell viability [4] [%]	cell viability [5] [%]	cell viability [6] [%]	cell viability [7] [%]	cell viability [8] [%]	cell viability [9] [%]	cell viability [10] [%]	cell viability [11] [%]	cell viability [12] [%]	cell viability [13] [%]	cell viability [14] [%]	cell viability [15] [%]	cell viability [16] [%]	cell viability [17] [%]	cell viability [18] [%]	cell viability [19] [%]	cell viability [20] [%]	cell viability [21] [%]	cell viability [22] [%]	cell viability [23] [%]	cell viability [24] [%]	cell viability [25] [%]	cell viability [26] [%]	cell viability [27] [%]	cell viability [28] [%]	cell viability [29] [%]	cell viability [30] [%]	cell viability [31] [%]	cell viability [32] [%]	cell viability [33] [%]
O=C(O)CCC1CCC(c2cc(F)ccc2F)([S+](=O)([O-])c2ccc(Cl)cc2)CC1 (stereo not given)	105	93.5	110	114	115	115	109	117	119	125	116	104	110	117	126	112	114	114	104	110	113	81.6	103	105	115	122	122	128	109	116	123	111	106
Nc1ncnc2c1ncn2[C@@H]1O[C@@H](CO)[C@H](O)[C@@H]1O	93.8	90.1	111	119	124	117	109	109	115	118	62.4												106	105	116	112	130	144	121	123	123	84.9	50.2
C[C@](Cc1c[nH]c2ccccc12)(NC(=O)OC1C2CC3CC(C2)CC1C3)C(=O)NC[C@H](NC(=O)CCC(=O)O)c1ccccc1 (stereo not given in full)	88.1	87.3	112	106	124	129	121	123	116	126	120	96.8	82.8	110	121	105	149	148	135	128	125	132	113	91	121	126	118	137	134	142	136	168	123
CCOC(=O)N1CCN(/[N+]([O-])=N/Oc2ccc([N+](=O)[O-])cc2C#N)CC1	85	88.8	86.5	91.4	120	106	109	25.2	15.3	13.6	9.4	104	108	106	109	110	125	114	16	10.6	10.3	7.12	106	92.3	108	107	114	117	104	22.4	12.1	12.2	9.24
COc1cc(F)c(F)c(Nc2ccc(I)cc2F)c1N[S+](=O)([O-])C1(C[C@H](O)CO)CC1	102	108	122	106	111	103	105	89.9	117	104	60.2	111	109	121	112	119	126	97.9	120	109	83.6	15.3	110	105	115	115	112	117	104	102	106	103	50.4
CNCCCC12CCC(c3ccccc31)c1ccccc12	96.5	108	105	99.7	116	114	110	105	93.5	89.6	59.5	87.3	97.3	98.2	99.4	76.6	104	106	100	90.5	85.2	63.8	113	125	105	110	111	115	128	107	106	118	75.5
CC1=C(C)C(=O)C(C(CCCCCC(=O)O)c2ccccc2)=C(C)C1=O (stereo not given)	63.6	70.7	56.2	69.2	65.6	78.1	71.6	64.6	59.7	44.7	41	77.4	92	73.4	79.9	75.1	77.4	59	57.3	35.1	26.7	31.9	54.8	74.5	57.1	69.9	75.2	97.2	58.6	76.6	46.5	48.6	24.9
O=C(C=CC#Cc1cccc(N[S+](=O)([O-])c2ccccc2)c1)NO	119	103	113	119	122	109	107	87	13.1	4.27	4.02	112	80.6	103	111	109	89.3	101	84.4	10.9	4.75	4.28	105	94.8	102	100	120	117	115	80.2	7.4	5.47	5.05
CC(C)c1ccc2c(c1)c(SC(C)(C)C)c(CC(C)(C)C(=O)[O-])n2Cc1ccc(Cl)cc1	104	96.6	107	100	106	95.3	103	101	106	107	83.2	101	84	109	99.7	96.9	102	89.9	101	93.5	89.5	75	98.9	103	106	107	97.6	104	91.6	88.5	92.5	97.5	89.9
COC\1=C(/OC)C(=O)\C(=C(C)/C1=O)CCCCCCCCCCO	97.8	92	92.4	120	119	132	133	99	119	112	90.8	109	109	127	105	132	136	124	112	136	123	90.6	122	129	123	115	129	125	137	113	141	98.6	68.3
S=C(NCc1ccc2c(c1)OCO2)N1CCN(c2ncnc3c2oc2ccccc23)CC1	116	120	123	100	129	23.2	124	124	93.7	79.4	16.7												104	103	121	127	134	126	134	135	62.9	64.5	17.5
NNCCc1ccccc1																							102	120	120	127	127	112	115	127	103	117	75.3
CCCCC(=O)O[C@]1(C(=O)CO)[C@H](C)C[C@H]2[C@@H]3CCC4=CC(=O)C=C[C@]4(C)[C@@]3(F)[C@@H](O)C[C@@]21C	102	122	111	96.2	92.6	87.1	83.4	75.2	71	71.4	70.9	118	124	139	124	91.3	98.2	84.3	73.9	76.7	70.3	67.6											
COC(=O)Nc1cc(Nc2cc(NC3CC3)c3ncc(C#N)n3n2)c(Cl)c(N2CCN(C)CC2)c1	97.9	103	98.7	98.5	98	102	86.5	77.7	37.9	5.22	4.93												113	122	110	109	103	95	84.4	61.9	29.9	5.89	5.24
COc1ccccc1OCC(O)COC(N)=O (stereo not given)	84	102	104	110	118	114	109	106	119	111	89.1	94.6	110	85.6	110	104	95.8	112	106	120	97.6	99.4	108	109	103	123	106	121	136	93.8	126	118	112
C[C@H]1COC2=C3N1\C=C(C(O)=O)/C(=O)C3=CC(=C2N4CCN(C)CC4)F	102	117	117	108	106	110	92.9	68.7	68.2	65.4	52.7	105	115	102	115	90.6	81.4	94.7	73.4	63.6	58.6	31.9	90	109	112	99.1	90.2	96.4	88.7	64.1	76.9	70.4	69.4
O=C1[C@H](Cc2ccc(O)cc2)N2C(=O)CCN(C(=O)NCc3ccccc3)[C@H]2CN1Cc1cccc2ccccc12	51.6	86.6	103	93.6	77	74.3	77.4	62.8	64.8	12.3	51.3	64.9	108	99.7	98.1	76.7	93.6	86.2	83.9	78.6	15.2	65.6	55.1	101	94.7	95	83	93.3	74.1	73.8	73.3	15.3	63.2
